Measurements from patent publication US20190119282A1, “IMIDAZOPYRIDAZINES USEFUL AS INHIBITORS OF THE PAR-2 SIGNALING PATHWAY” (Vertex Pharmaceuticals Incorporated, priority 2013, published 2019).
pIC50: −log10 of the molar value.

Assays:
[1] = molecular target: T1, PAR2 (HT-29 cells, SLIGKV activation) (Homo sapiens, UniProt P55085); test: Ca FLIPR TETRA assay, ANTAGONIST mode, stimulation with 8 μM SLIGKV; assay type: cell-based; conditions: HT-29 cells
T1 construct: host or cells: HT-29 cells
T1 sequence (P55085 26-397): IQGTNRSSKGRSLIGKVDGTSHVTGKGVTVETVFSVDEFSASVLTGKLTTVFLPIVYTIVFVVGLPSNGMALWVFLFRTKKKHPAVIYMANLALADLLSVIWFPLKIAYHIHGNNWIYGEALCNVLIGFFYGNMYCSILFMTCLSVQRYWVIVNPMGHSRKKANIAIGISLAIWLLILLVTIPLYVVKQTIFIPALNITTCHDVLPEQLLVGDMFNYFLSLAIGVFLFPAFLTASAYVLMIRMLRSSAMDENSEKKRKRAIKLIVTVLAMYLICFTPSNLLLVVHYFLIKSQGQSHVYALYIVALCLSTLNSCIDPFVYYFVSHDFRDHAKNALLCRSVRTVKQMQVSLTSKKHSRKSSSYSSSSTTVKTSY
In short: (§1)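 Antagonist-mode assay: dye-loaded HT-29 cells, compound 30 min at r.t., then stimulated with final 8 μM SLIGKV, 3.1 U/mL trypsin, 1 U/mL thrombin or 0.6 μM UTP; calcium fluorescence read.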

[2] = molecular target: T2, PAR2 (HT-29 cells, trypsin activation) (Homo sapiens, UniProt P55085); test: Ca FLIPR TETRA assay, ANTAGONIST mode, stimulation with 3.1 U/mL trypsin; assay type: cell-based; conditions: HT-29 cells
T2 construct: host or cells: HT-29 cells
T2 sequence (P55085 26-397): T1 sequence (P55085 26-397)
In short: as §1

[3] = system: Thrombin-stimulated Ca2+ response in HT-29 cells; test: Ca FLIPR TETRA assay, ANTAGONIST mode, stimulation with 1 U/mL Thrombin; assay type: cell-based, human; conditions: Homo sapiens, HT-29 cells
In short: as §1

[4] = system: UTP-stimulated Ca2+ response in HT-29 cells; test: Ca FLIPR TETRA assay, ANTAGONIST mode, stimulation with 0.6 μM UTP; assay type: cell-based, human; conditions: Homo sapiens, HT-29 cells
In short: as §1

[5] = stimulation with 3.1 U/mL trypsin
[6] = stimulation with 1 U/mL Thrombin
[7] = antagonist mode, stimulation with 8 μM SLIGKV
[8] = antagonist mode, stimulation with 3.1 U/mL trypsin
[9] = antagonist mode, stimulation with 1 U/mL Thrombin
[10] = antagonist mode, stimulation with 0.6 μM UTP
[11] = antagonist mode, 3.1 U/mL trypsin
[12] = antagonist mode, 1 U/mL Thrombin

pIC50 [1, 7]	pIC50 [2, 8]	pIC50 [3, 9]	pIC50 [4, 10]	SMILES	other results
–	–	–	–	C[C@H]1CN(C(=O)c2cn3nc(-c4ccc(F)cc4)cc(C(F)(F)F)c3n2)CCN1C(=O)OC(C)(C)C [Compound I-1, tert-Butyl (2S)-4-[6-(4-fluorophenyl)-8-(trifluoromethyl)imidazo[1,2-b]pyridazine-2-carbonyl]-2-methyl-piperazine-1-carboxylate]	pIC50 ([1]; stimulation with 8 μM SLIGKV): 6.55; pIC50 [2, 5]: 6.00; pIC50 [3, 6]: 5.44; pIC50 ([4]; stimulation with 0.6 μM UTP): 5.51
–	–	–	–	CC(C)c1cc(C2CCCCC2)nn2cc(C(=O)N3CCN(C(=O)C4(O)CCC4)CC3(C)C)nc12 [Compound I-41, (6-Cyclohexyl-8-isopropyl-imidazo[1,2-b]pyridazin-2-yl)-[4-(1-hydroxycyclobutanecarbonyl)-2,2-dimethyl-piperazin-1-yl]methanone]	pIC50 ([1]; stimulation with 8 μM SLIGKV): 7.21; pIC50 [2, 5]: 6.55; pIC50 [3, 6]: 4.70; pIC50 ([4]; stimulation with 0.6 μM UTP): 4.68
7.59	7.50	< 6.00	< 6.00	Cc1cc(-c2cc(C(C)C)c3nc(C(=O)N4CCN(CO)C(=O)C4(C)C)cn3n2)ccc1F [Compound I-470]	–
8.82	8.92	< 6.00	< 6.00	Cc1ccc(-c2cc(C(C)(C)C)c3nc(C(=O)N4CCN(C(=O)c5ccccn5)CC4(C)C)cn3n2)cc1F [Compound I-425]	–
9.30	9.30	6.12	6.36	CC(C)(C)c1cc(-c2ccc(F)cc2)nn2cc(C(=O)N3CCN(C(=O)[C@H]4CC[C@@H](C(=O)O)CC4)CC3(C)C)nc12 [Compound I-493, (1S,4S)-4-(4-(8-(tert-butyl)-6-(4-fluorophenyl)imidazo[1,2-b]pyridazine-2-carbonyl)-3,3-dimethylpiperazine-1-carbonyl)cyclohexane-1-carboxylic acid]	–
8.04	7.90	6.52	< 6.00	CC(C)(C)c1cc(-c2ccc(F)cc2)nn2cc(C(=O)N3CCN(C4(CO)CC4)C(=O)C3(C)C)nc12 [Compound I-297]	–
9.00	8.82	< 6.00	< 6.00	CC(C)(C)c1cc(-c2ccc(F)c(Cl)c2)nn2cc(C(=O)N3CCN(C(=O)c4ccn[nH]4)CC3(C)C)nc12 [Compound I-459]	–
7.76	7.39	5.94	5.90	C[C@@H]1CN(c2cc(-c3ccc(F)cc3)nn3cc(C(=O)N4CCNC(=O)C4(C)C)nc23)C[C@H](C)O1 [Compound I-182]	–
8.08	8.02	< 6.00	< 6.00	COC1CC(C(=O)N2CCN(C(=O)c3cn4nc(-c5ccc(F)c(Cl)c5)cc(C(C)C)c4n3)C(C)(C)C2)C1 (centres unmarked) [Compound I-499]	–
8.74	8.38	< 6.00	< 6.00	COC(=O)C(C)(C)CC(=O)N1CCN(C(=O)c2cn3nc(-c4ccc(F)cc4)cc(C(C)(C)C)c3n2)C(C)(C)C1 [Compound I-528]	–
–	–	–	–	CC(C)(C)c1cc(-c2ccc(F)cc2)nn2cc(C(=O)N3CCN(C(=O)[C@H]4C[C@H](C(=O)O)C4)CC3(C)C)nc12 [Compound I-556, (1R,3R)-3-(4-(8-(tert-butyl)-6-(4-fluorophenyl)imidazo[1,2-b]pyridazine-2-carbonyl)-3,3-dimethylpiperazine-1-carbonyl)cyclobutane-1-carboxylic acid]	pIC50 ([1]; antagonist mode, 8 μM SLIGKV): 8.05; pIC50 [2, 11]: 7.68; pIC50 [3, 12]: < 6.00; pIC50 ([4]; antagonist mode, 0.6 μM UTP): < 6.00
7.68	7.70	< 6.00	< 6.00	CC(C)c1cc(-c2ccc(F)c(Cl)c2)nn2cc(C(=O)N3CCN(C(=O)[C@H]4C[C@@H](C(=O)O)C4)CC3(C)C)nc12 [Compound I-502]	–
8.02	8.22	< 6.00	< 6.00	Cc1nnc(C(=O)N2CCN(C(=O)c3cn4nc(-c5ccc(C(F)(F)F)cc5)cc(C(C)C)c4n3)C(C)(C)C2)o1 [Compound I-280]	–
–	–	–	–	Cc1noc(C2CCCCN2C(=O)c2cn3nc(-c4ccc(F)cc4)cc(C(F)(F)F)c3n2)n1 (centres unmarked) [Compound I-72]	pIC50 ([1]; stimulation with 8 μM SLIGKV): 5.85; pIC50 [2, 5]: 5.82; pIC50 [3, 6]: 4.30; pIC50 ([4]; stimulation with 0.6 μM UTP): < 4.30
9.70	9.52	< 6.00	< 6.00	Cc1ccc(-c2cc(C(C)C)c3nc(C(=O)N4CCN(C(=O)[C@H]5C[C@](O)(C(F)(F)F)C5)CC4(C)C)cn3n2)cc1 [Compound I-254]	–
9.00	8.89	< 6.00	< 6.00	Cc1n[nH]c(C(=O)N2CCN(C(=O)c3cn4nc(-c5ccc(F)c(C)c5)cc(C(C)(C)C)c4n3)C(C)(C)C2)n1 [Compound I-414]	–

pIC50 [1, 7]	pIC50 [2, 8]	pIC50 [3, 9]	pIC50 [4, 10]	SMILES	other results
–	–	–	–	CC(C)(C)c1cc(-c2ccc(F)cc2)nn2cc(C(=O)N3CCN(C(=O)[C@H]4C[C@@H](C(=O)O)C4)CC3(C)C)nc12 [Compound I-555, (1S,3S)-3-(4-(8-(tert-butyl)-6-(4-fluorophenyl)imidazo[1,2-b]pyridazine-2-carbonyl)-3,3-dimethylpiperazine-1-carbonyl)cyclobutane-1-carboxylic acid]	pIC50 ([1]; antagonist mode, 8 μM SLIGKV): 8.38; pIC50 [2, 11]: 8.11; pIC50 [3, 12]: < 6.00; pIC50 ([4]; antagonist mode, 0.6 μM UTP): < 6.00
6.24	< 6.00	< 6.00	< 6.00	CC(C)c1cc(-c2ccc(F)cc2)nn2cc(C(=O)N3CCN(C(=O)C(O)C(C)C)C[C@H]3C)nc12 (some centres unmarked) [Compound I-195]	–
–	–	–	–	Cc1noc(C)c1CCC(=O)N1CCN(C(=O)c2cn3nc(-c4ccc(F)cc4)cc(C(C)C)c3n2)C[C@@H]1C [Compound I-136]	pIC50 ([1]; stimulation with 8 μM SLIGKV): 8.15; pIC50 [2, 5]: 7.47; pIC50 [3, 6]: < 5.30; pIC50 ([4]; stimulation with 0.6 μM UTP): 5.11
8.66	8.55	6.43	< 6.00	Cc1cccc(-c2cc(C(C)(C)C)c3nc(C(=O)N4CCN(C(=O)c5cc(C)n[nH]5)CC4(C)C)cn3n2)c1 [Compound I-406]	–
–	–	–	–	CC(C)c1cc(-c2ccc(F)cc2)nn2cc(C(=O)N3CCN(CC(C)(C)O)C(=O)C3(C)C)nc12 [Compound I-180]	pIC50 ([1]; stimulation with 8 μM SLIGKV): 7.49; pIC50 [2, 5]: 7.39; pIC50 [3, 6]: < 4.30; pIC50 ([4]; stimulation with 0.6 μM UTP): 4.74
7.49	7.35	< 6.00	< 6.00	CC(C)(C)c1cc(-c2ccc(F)cc2)nn2cc(C(=O)N3CCN(C(=O)c4nnn[nH]4)CC3(C)C)nc12 [Compound I-296]	–
8.62	8.26	6.14	< 6.00	CC(C)(C)c1cc(-c2ccc(F)cc2)nn2cc(C(=O)N3CCN(C(=O)c4cncnc4)CC3(C)C)nc12 [Compound I-230]	–
8.18	8.03	< 6.00	< 6.00	CC(C)c1cc(-c2ccc(C(F)F)cc2)nn2cc(C(=O)N3CCN(C(=O)c4ccn[nH]4)CC3(C)C)nc12 [Compound I-293]	–
7.04	6.73	< 6.00	< 6.00	CC(C)c1cc(-c2ccccc2)nn2cc(C(=O)N3CCN(C(=O)C(C)(C)O)CC3(C)C)nc12 [Compound I-253]	–
–	–	–	–	CC(C)c1cc(-c2ccc(F)cc2)nn2cc(C(=O)N3CCN(C(=O)Cc4cccnc4)[C@@H](C)C3)nc12 [Compound I-142]	pIC50 ([1]; stimulation with 8 μM SLIGKV): 7.46; pIC50 [2, 5]: 6.55; pIC50 [3, 6]: 4.59; pIC50 ([4]; stimulation with 0.6 μM UTP): 4.62
9.00	8.96	< 6.00	< 6.00	CC(C)(C)c1cc(-c2ccc(F)cc2)nn2cc(C(=O)N3CCN(c4cn[nH]n4)C(=O)C3(C)C)nc12 [Compound I-359]	–
9.00	8.82	< 6.00	< 6.00	CC(C)c1cc(-c2ccc(Cl)cc2)nn2cc(C(=O)N3CCN(C(=O)[C@H]4C[C@@](C)(O)C4)CC3(C)C)nc12 [Compound I-541]	–
8.74	8.40	5.60	5.41	CN1CCN(C(=O)c2cn3nc(-c4ccc(F)cc4)cc(C(C)(C)C)c3n2)C(C)(C)C1=O [Compound I-188]	–
8.92	8.82	< 6.00	< 6.00	CC(C)(C)c1cc(-c2ccc(F)c(F)c2)nn2cc(C(=O)N3CCNC(=O)C3(C)C)nc12 [Compound I-352]	–
7.17	6.73	< 6.00	< 6.00	CC(C)c1cc(-c2ccc(F)cc2)nn2cc(C(=O)N3CCN(C(=O)c4ccnnc4)CC3(C)C)nc12 [Compound I-306]	–
8.38	8.32	< 4.30	< 4.30	CC(C)(C)OC(=O)N1CCN(C(=O)c2cn3nc(-c4ccc(F)cc4)cc(C(C)(C)C)c3n2)C(C)(C)C1 [Compound I-190]	–
